Laboratory results reported in patent publication US20260053811A1, “METHODS OF TREATING HYPERTENSION IN OBESE SUBJECTS” (Mineralys Therapeutics, Inc., priority 2022, published 2026).

Columns and labels:
[1] = tested on: hypertensive subjects; assay: Estimated glomerular filtration rate (eGFR, CKD-EPI equation); assay type: in vivo, human; details: for Estimated Glomerular Filtration Rate, Mean (SD) Observed / Estimated Glomerular Filtration Rate, Mean (SD) Change from Baseline: Part 1; for Estimated Glomerular Filtration Rate, Mean Change from Baseline / Estimated Glomerular Filtration Rate, Mean Observed: Part 2; for Change in estimated glomerular filtration rate (eGFR): across dosing cohorts
Experimental: In contrast, mean eGFR for the Placebo group was relatively stable throughout treatment, reaching a mean maximal reduction of −2.80 mL/min/1.73 m^2 at Week 2 (range: −0.83 mL/min/1.73 m^2 to −2.80 mL/min/1.73 m^2). Estimated glomerular filtration rate was estimated using the CKD-EPI equation.

[2] = tested on: 11-deoxycorticosterone; assay: Serum 11-deoxycorticosterone (pharmacodynamic response); assay type: in vivo, human; details: for 11-Deoxycorticosterone, Mean (SD) Observed / 11-Deoxycorticosterone, Mean (SD) Percent Change from Baseline: Part 1; for 11-Deoxycorticosterone, Mean Observed / 11-Deoxycorticosterone, Mean Percent Change from Baseline: Part 2
Description: PK/PD Analysis Set includes all subjects in the SAF who have sufficient data available for the analysis of pharmacokinetic and pharmacodynamic measurements. In the analyses based on PKPD, subjects will be analyzed according to the actual treatment received.

Compound: CC(=O)N[C@H]1CC[C@H](NC(=O)CN2CCN(c3nncc(-c4ccc(C)cc4)n3)CC2)CC1 [Compound A HBr]
- Estimated Glomerular Filtration Rate, Mean (SD) Observed ([1]; Week 5, 12.5 mg BID): 73.84 (20.78) mL/min/1.73 m^2
- Estimated Glomerular Filtration Rate, Mean (SD) Change from Baseline ([1]; Week 5, 12.5 mg QD): −3.60 (5.70) mL/min/1.73 m^2
- Estimated Glomerular Filtration Rate, Mean (SD) Observed ([1]; Week 5, 12.5 mg QD): 75.25 (19.58) mL/min/1.73 m^2
- Estimated Glomerular Filtration Rate, Mean (SD) Change from Baseline ([1]; Week 5, 25 mg BID): −7.41 (9.65) mL/min/1.73 m^2
- Estimated Glomerular Filtration Rate, Mean (SD) Observed ([1]; Week 5, 25 mg BID): 73.25 (14.75) mL/min/1.73 m^2
- Estimated Glomerular Filtration Rate, Mean (SD) Change from Baseline ([1]; Week 5, 50 mg QD): −4.10 (9.61) mL/min/1.73 m^2
- Estimated Glomerular Filtration Rate, Mean (SD) Observed ([1]; Week 5, 50 mg QD): 70.58 (13.23) mL/min/1.73 m^2
- Estimated Glomerular Filtration Rate, Mean (SD) Change from Baseline ([1]; Week 5, 100 mg QD): −10.50 (10.94) mL/min/1.73 m^2
- Estimated Glomerular Filtration Rate, Mean (SD) Observed ([1]; Week 5, 100 mg QD): 66.19 (19.58) mL/min/1.73 m^2
- Estimated Glomerular Filtration Rate, Mean (SD) Change from Baseline ([1]; Week 6, 12.5 mg BID): −6.45 (8.05) mL/min/1.73 m^2
- Estimated Glomerular Filtration Rate, Mean (SD) Observed ([1]; Week 6, 12.5 mg BID): 74.70 (16.86) mL/min/1.73 m^2
- Estimated Glomerular Filtration Rate, Mean (SD) Change from Baseline ([1]; Week 6, 12.5 mg QD): −6.28 (6.77) mL/min/1.73 m^2
- Estimated Glomerular Filtration Rate, Mean (SD) Observed ([1]; Week 6, 12.5 mg QD): 73.39 (20.48) mL/min/1.73 m^2
- Estimated Glomerular Filtration Rate, Mean (SD) Change from Baseline ([1]; Week 6, 25 mg BID): −8.02 (9.17) mL/min/1.73 m^2
- Estimated Glomerular Filtration Rate, Mean (SD) Observed ([1]; Week 6, 25 mg BID): 72.64 (15.33) mL/min/1.73 m^2
- Estimated Glomerular Filtration Rate, Mean (SD) Change from Baseline ([1]; Week 6, 50 mg QD): −2.83 (8.61) mL/min/1.73 m^2
- Estimated Glomerular Filtration Rate, Mean (SD) Observed ([1]; Week 6, 50 mg QD): 74.63 (16.59) mL/min/1.73 m^2
- Estimated Glomerular Filtration Rate, Mean (SD) Change from Baseline ([1]; Week 6, 100 mg QD): −9.94 (12.91) mL/min/1.73 m^2
- Estimated Glomerular Filtration Rate, Mean (SD) Observed ([1]; Week 6, 100 mg QD): 66.19 (21.44) mL/min/1.73 m^2
- Estimated Glomerular Filtration Rate, Mean (SD) Change from Baseline ([1]; Week 7, 12.5 mg BID): −7.03 (8.98) mL/min/1.73 m^2
- Estimated Glomerular Filtration Rate, Mean (SD) Observed ([1]; Week 7, 12.5 mg BID): 75.85 (21.29) mL/min/1.73 m^2
- Estimated Glomerular Filtration Rate, Mean (SD) Change from Baseline ([1]; Week 7, 12.5 mg QD): −7.17 (8.80) mL/min/1.73 m^2
- Estimated Glomerular Filtration Rate, Mean (SD) Observed ([1]; Week 7, 12.5 mg QD): 72.50 (22.45) mL/min/1.73 m^2
- Estimated Glomerular Filtration Rate, Mean (SD) Change from Baseline ([1]; Week 7, 25 mg BID): −7.85 (9.47) mL/min/1.73 m^2
- Estimated Glomerular Filtration Rate, Mean (SD) Observed ([1]; Week 7, 25 mg BID): 72.22 (13.89) mL/min/1.73 m^2
- Estimated Glomerular Filtration Rate, Mean (SD) Change from Baseline ([1]; Week 7, 50 mg QD): −5.46 (10.42) mL/min/1.73 m^2
- Estimated Glomerular Filtration Rate, Mean (SD) Observed ([1]; Week 7, 50 mg QD): 69.68 (12.23) mL/min/1.73 m^2
- Estimated Glomerular Filtration Rate, Mean (SD) Change from Baseline ([1]; Week 7, 100 mg QD): −9.50 (12.17) mL/min/1.73 m^2
- Estimated Glomerular Filtration Rate, Mean (SD) Observed ([1]; Week 7, 100 mg QD): 66.96 (21.02) mL/min/1.73 m^2
- Estimated Glomerular Filtration Rate, Mean (SD) Change from Baseline ([1]; Week 8, 12.5 mg BID): −6.66 (7.92) mL/min/1.73 m^2
- Estimated Glomerular Filtration Rate, Mean (SD) Observed ([1]; Week 8, 12.5 mg BID): 76.32 (19.63) mL/min/1.73 m^2
- Estimated Glomerular Filtration Rate, Mean (SD) Change from Baseline ([1]; Week 8, 12.5 mg QD): −3.67 (8.10) mL/min/1.73 m^2
- Estimated Glomerular Filtration Rate, Mean (SD) Observed ([1]; Week 8, 12.5 mg QD): 76.00 (21.00) mL/min/1.73 m^2
- Estimated Glomerular Filtration Rate, Mean (SD) Change from Baseline ([1]; Week 8, 25 mg BID): −5.55 (9.22) mL/min/1.73 m^2
- Estimated Glomerular Filtration Rate, Mean (SD) Observed ([1]; Week 8, 25 mg BID): 75.11 (14.81) mL/min/1.73 m^2
- Estimated Glomerular Filtration Rate, Mean (SD) Change from Baseline ([1]; Week 8, 50 mg QD): −4.64 (9.87) mL/min/1.73 m^2
- Estimated Glomerular Filtration Rate, Mean (SD) Observed ([1]; Week 8, 50 mg QD): 72.54 (16.89) mL/min/1.73 m^2
- Estimated Glomerular Filtration Rate, Mean (SD) Change from Baseline ([1]; Week 8, 100 mg QD): −7.83 (11.62) mL/min/1.73 m^2
- Estimated Glomerular Filtration Rate, Mean (SD) Observed ([1]; Week 8, 100 mg QD): 68.42 (20.14) mL/min/1.73 m^2
- Estimated Glomerular Filtration Rate, Mean Change from Baseline ([1]; Week 1, 100 mg QD): −9.65 mL/min/1.73 m^2
- Estimated Glomerular Filtration Rate, Mean Observed ([1]; Week 1, 100 mg QD): 70.73 mL/min/1.73 m^2
- Estimated Glomerular Filtration Rate, Mean Change from Baseline ([1]; Week 2, 100 mg QD): −8.05 mL/min/1.73 m^2
- Estimated Glomerular Filtration Rate, Mean Observed ([1]; Week 2, 100 mg QD): 72.07 mL/min/1.73 m^2
- Estimated Glomerular Filtration Rate, Mean Change from Baseline ([1]; Week 3, 100 mg QD): −7.33 mL/min/1.73 m^2
- Estimated Glomerular Filtration Rate, Mean Observed ([1]; Week 3, 100 mg QD): 72.69 mL/min/1.73 m^2
- Estimated Glomerular Filtration Rate, Mean Change from Baseline ([1]; Week 4, 100 mg QD): −7.20 mL/min/1.73 m^2
- Estimated Glomerular Filtration Rate, Mean Observed ([1]; Week 4, 100 mg QD): 72.92 mL/min/1.73 m^2
- Estimated Glomerular Filtration Rate, Mean Change from Baseline ([1]; Week 5, 100 mg QD): −8.69 mL/min/1.73 m^2
- Estimated Glomerular Filtration Rate, Mean Observed ([1]; Week 5, 100 mg QD): 71.23 mL/min/1.73 m^2
- Estimated Glomerular Filtration Rate, Mean Change from Baseline ([1]; Week 6, 100 mg QD): −10.87 mL/min/1.73 m^2
- Estimated Glomerular Filtration Rate, Mean Observed ([1]; Week 6, 100 mg QD): 68.04 mL/min/1.73 m^2
- Estimated Glomerular Filtration Rate, Mean Change from Baseline ([1]; Week 7, 100 mg QD): −7.34 mL/min/1.73 m^2
- Estimated Glomerular Filtration Rate, Mean Observed ([1]; Week 7, 100 mg QD): 72.82 mL/min/1.73 m^2
- Estimated Glomerular Filtration Rate, Mean Change from Baseline ([1]; Week 8, 100 mg QD): −7.95 mL/min/1.73 m^2
- Estimated Glomerular Filtration Rate, Mean Observed ([1]; Week 8, 100 mg QD): 72.43 mL/min/1.73 m^2
- Change in estimated glomerular filtration rate (eGFR) [1]: dose-dependent and reversible reduction in eGFR
- Change in estimated glomerular filtration rate (eGFR) ([1]; listed as lorundrostat): dose-dependent and reversible reduction in eGFR
- 11-Deoxycorticosterone, Mean (SD) Observed ([2]; Wk 4, 12.5 mg BID): 9.0 (3.0) ng/dL
- 11-Deoxycorticosterone, Mean (SD) Percent Change from Baseline ([2]; Wk 4, 12.5 mg BID): 12.50 (37.50) %
- 11-Deoxycorticosterone, Mean (SD) Observed ([2]; Wk 4, 12.5 mg QD): 11.1 (5.5) ng/dL
- 11-Deoxycorticosterone, Mean (SD) Percent Change from Baseline ([2]; Wk 4, 12.5 mg QD): 31.41 (60.95) %
- 11-Deoxycorticosterone, Mean (SD) Observed ([2]; Wk 4, 25 mg BID): 13.7 (13.9) ng/dL
- 11-Deoxycorticosterone, Mean (SD) Percent Change from Baseline ([2]; Wk 4, 25 mg BID): 71.63 (173.69) %
- 11-Deoxycorticosterone, Mean (SD) Observed ([2]; Wk 4, 50 mg QD): 8.0 (0.0) ng/dL
- 11-Deoxycorticosterone, Mean (SD) Percent Change from Baseline ([2]; Wk 4, 50 mg QD): −2.66 (9.61) %
- 11-Deoxycorticosterone, Mean (SD) Observed ([2]; Wk 4, 100 mg QD): 9.5 (5.2) ng/dL
- 11-Deoxycorticosterone, Mean (SD) Percent Change from Baseline ([2]; Wk 4, 100 mg QD): 16.18 (66.37) %
- 11-Deoxycorticosterone, Mean (SD) Observed ([2]; Wk 12, 12.5 mg BID): 8.0 (0.0) ng/dL
- 11-Deoxycorticosterone, Mean (SD) Percent Change from Baseline ([2]; Wk 12, 12.5 mg BID): 0.00 (0.00) %
- 11-Deoxycorticosterone, Mean (SD) Observed ([2]; Wk 12, 12.5 mg QD): 9.2 (4.9) ng/dL
- 11-Deoxycorticosterone, Mean (SD) Percent Change from Baseline ([2]; Wk 12, 12.5 mg QD): 11.96 (62.37) %
- 11-Deoxycorticosterone, Mean (SD) Observed ([2]; Wk 12, 25 mg BID): 8.0 (0.0) ng/dL
- 11-Deoxycorticosterone, Mean (SD) Percent Change from Baseline ([2]; Wk 12, 25 mg BID): 0.00 (0.00) %
- 11-Deoxycorticosterone, Mean (SD) Observed ([2]; Wk 12, 50 mg QD): 8.5 (2.4) ng/dL
- 11-Deoxycorticosterone, Mean (SD) Percent Change from Baseline ([2]; Wk 12, 50 mg QD): 3.01 (31.53) %
- 11-Deoxycorticosterone, Mean (SD) Observed ([2]; Wk 12, 100 mg QD): 8.4 (2.0) ng/dL
- 11-Deoxycorticosterone, Mean (SD) Percent Change from Baseline ([2]; Wk 12, 100 mg QD): 2.80 (28.58) %
- 11-deoxycorticosterone compared with placebo ([2]; Part 1 active treatment arms, Week 4): Transient increases
- 11-Deoxycorticosterone, Mean Observed ([2]; Wk 4, 100 mg QD): 10.28 ng/dL
- 11-Deoxycorticosterone, Mean Percent Change from Baseline ([2]; Wk 4, 100 mg QD): 6.02%
- 11-Deoxycorticosterone, Mean Observed ([2]; Wk 10, 100 mg QD): 8.00 ng/dL
- 11-Deoxycorticosterone, Mean Percent Change from Baseline ([2]; Wk 10, 100 mg QD): −8.78%
- 11-deoxycorticosterone levels ([2]; summary of trial): unaffected
